# Assay results reported in patent US5589483A, “Isoquinoline poly (ADP-ribose) polymerase inhibitors to treat skin diseases associated with cellular senescence” (priority 1994, dated 1996).
# Legend:
# [1] = target: Poly (ADP-Ribose) Polymerase (PADPRP); conditions: cited from earlier work; for IC50: PADPRP Inhibitors, Table 1
# [2] = test system: human fibroblast cells (W138 cells); assay: Extension of lifespan and proliferative capacity of human fibroblast cells in culture (cumulative population doublings); format: cell-based
# Description: At the time of subdivision, the media was aspirated, and the cells were rinsed with phosphate buffered saline (PBS) and then trypsinized. […] This process was repeated every ~7 days until the cells appeared to stop dividing.
# human fibroblasts = conditions: Rattan and Clark, 1994; cited from earlier work
Compound,IC50 [1],further results
Cc1cccc(C(N)=O)c1 [3-Methylbenzamide],19 µM,
NC(=O)c1ccccc1 [Benzamide],22 µM,
Nc1cccc2c(=O)[nH][nH]c(=O)c12 [3-Aminophthalhydrazide],23 µM,
O=c1[nH][nH]c(=O)c2c([N+](=O)[O-])cccc12 [3-Nitrophthalhydrazide],72 µM,
CC(=O)Nc1cccc(C(N)=O)c1 [3-Acetamidobenzamide],12 µM,
NC(=O)c1cccc(C(N)=O)c1 [m-Phthalamide],50 µM,
"Oc1cccc2c(O)nccc12 [1,5-Dihydroxyisoquinoline]",,"proliferative lifespan (maximum achievable cumulative population doublings) ([2]; 100 μM (DMSO concentration 0.1%), W138 cells, FIG. 2): extension of their proliferative lifespan; proliferative capacity of treated cells ([2]; same procedure, FIG. 2, concentration not given): increased proliferative capacity"
c1coc(CNc2ncnc3[nH]cnc23)c1 [kinetin],,"cell culture lifespan in terms of maximum proliferative capacity in vitro (human fibroblasts): not accompanied by an increase in cell culture lifespan; onset of aging characteristics (human fibroblasts): delay the onset of aging characteristics; PADPRP inhibition (in words) ([1]; Althaus and Richter, 1987): weak inhibitor"
COc1ccccc1C(N)=O [2-Methoxybenzamide],20 µM,
NC(=O)c1cccc(F)c1 [3-Fluorobenzamide],20 µM,
NC(=O)c1cccc(O)c1 [3-Hydroxybenzamide],9.1 µM,
O=c1[nH]c2ccc([N+](=O)[O-])cc2c2ccccc12 [2-Nitro-6(5H)-phenanthridinone],0.35 µM,
CCCCC/C=C\C/C=C\C/C=C\C/C=C\CCCC(=O)O [Arachidonic acid],44 µM,
NC(=O)c1cccnc1 [Nicotinamide],210 µM,
Oc1ccnc2ccccc12 [4-Hydroxyquinoline],80 µM,
CCCCC/C=C\C/C=C\CCCCCCCC(=O)O [Linoleic acid],48 µM,
Cc1cc(O)c2ccccc2n1 [4-Hydroxy-2-methylquinoline],74 µM,
O=c1[nH]c(=O)n([C@@H]2O[C@H](CO)[C@@H](O)[C@H]2O)cc1I [5-Iodouridine],43 µM,
CCCCCCCC/C=C\CCCCCCCC(=O)O [Oleic acid],82 µM,
"O=c1[nH][nH]c(=O)c2ccccc12 [2,3-Dihydro-1,4-phthalazinedione]",30 µM,
NC(=O)c1ccccc1O [2-Hydroxybenzamide],82 µM,
O=c1[nH]cc(I)c(=O)[nH]1 [5-Iodouracil],71 µM,
CC(=O)Nc1ccc(O)c(C(N)=O)c1 [5-Acetamidosalicylamide],45 µM,
O=c1[nH]ncc2ccccc12 [1(2H)-Phthalazinone],12 µM,
"Cc1cc(=O)c2ccccc2o1 [2-Methyl-1,4-benzopyrone]",45 µM,
O=c1[nH]c2ccccc2c2ccccc12 [2H-Benz[c]isoquinolin-1-one],0.3 µM,
O=c1[nH]c(S)nc2ccccc12 [2-Mercapto-4(3H)-quinazolinone],44 µM,
NC(=O)c1cccc(N)c1 [3-Aminobenzamide],,"lifespan of treated cells versus control cells ([2]; 10 μM 3-AB, FIG. 1): no effect; lifespan of treated cells versus control cells ([2]; 100 μM 3-AB, FIG. 1): longer lifespan than control cells; lifespan and proliferative capacity of treated cells ([2]; 1 mM 3-AB, FIG. 1): dramatic increase in lifespan and proliferative capacity; maximum achievable cumulative population doublings ([2]; 1 mM 3-AB, W138 cells, FIG. 1): significant increase; days in culture at which cells were still dividing ([2]; 1 mM 3-AB, control cells stopped dividing after about 40 days): > 60 days"
